Experimental data: the OligoGym collection
Values joined by “and” are separate entries in the source; they are usually repeats but may differ in a detail not shown here. Identical values can stand only once. HELM strings list units from the 5' end as sugar, base in round brackets, then linkage (d deoxyribose, r ribose, m 2'-O-methyl, p phosphodiester). Methylation of C is not given here. [moe] = 2'-O-(2-methoxyethyl) (MOE); [cEt] = constrained ethyl (cEt); [sp] = phosphorothioate linkage

Molecular target: HBV
Details: ASO

RNA1{[moe](C)[sp].[cEt](A)[sp].[cEt](C)[sp].d(T)[sp].d(A)[sp].d(G)[sp].d(T)[sp].d(A)[sp].d(A)[sp].d(A)[sp].d(C)[sp].d(T)[sp].d(G)[sp].[cEt](A)[sp].[cEt](G)[sp].[moe](C)}$$$$V2.0
target mRNA inhibition (HepG2, 0.07 µM): 73% and 71%

RNA1{[moe](G)[sp].[moe](A)[sp].[moe](T)[sp].[moe](G)[sp].d(A)[sp].d(G)[sp].d(G)[sp].d(C)[sp].d(A)[sp].d(T)[sp].d(A)[sp].d(G)[sp].d(C)[sp].[moe](A)[sp].[moe](G)[sp].[moe](C)}$$$$V2.0
target mRNA inhibition (HepG2, 0.07 µM): 34% and 35%

RNA1{[moe](T)[sp].[moe](T)[sp].[moe](T)[sp].[moe](A)[sp].d(T)[sp].d(G)[sp].d(C)[sp].d(C)[sp].d(T)[sp].d(A)[sp].d(C)[sp].d(A)[sp].d(G)[sp].[moe](C)[sp].[moe](C)[sp].[moe](T)[sp].[moe](C)}$$$$V2.0
target mRNA inhibition (HepG2, 0.07 µM): 54% and 37%

RNA1{[moe](G)[sp].[cEt](G)[sp].[cEt](C)[sp].d(A)[sp].d(C)[sp].d(A)[sp].d(G)[sp].d(C)[sp].d(T)[sp].d(T)[sp].d(G)[sp].d(G)[sp].d(A)[sp].[cEt](G)[sp].[cEt](G)[sp].[moe](C)}$$$$V2.0
target mRNA inhibition (HepG2, 0.07 µM): 36% and 39%

RNA1{[moe](A)[sp].[moe](T)[sp].[moe](T)[sp].[cEt](T)[sp].[cEt](A)[sp].d(T)[sp].d(G)[sp].d(C)[sp].d(C)[sp].d(T)[sp].d(A)[sp].d(C)[sp].[cEt](A)[sp].[cEt](G)[sp].[moe](C)[sp].[moe](C)[sp].[moe](T)}$$$$V2.0
target mRNA inhibition (HepG2, 0.009375 µM): 4%
target mRNA inhibition (HepG2, 0.01875 µM): 30%
target mRNA inhibition (HepG2, 0.0375 µM): 44%
target mRNA inhibition (HepG2, 0.075 µM): 52%
target mRNA inhibition (HepG2, 0.15 µM): 67%
target mRNA inhibition (HepG2, 0.3 µM): 76%

RNA1{[moe](A)[sp].[moe](T)[sp].[moe](T)[sp].[moe](T)[sp].[moe](A)[sp].d(T)[sp].d(G)[sp].d(C)[sp].d(C)[sp].d(T)[sp].d(A)[sp].d(C)[sp].d(A)[sp].d(G)[sp].[moe](C)[sp].[moe](C)}$$$$V2.0
target mRNA inhibition (HepG2, 0.07 µM): 47% and 41%

RNA1{[moe](C)[sp].[moe](A)[sp].d(C)[sp].d(T)[sp].d(A)[sp].d(G)[sp].d(T)[sp].d(A)[sp].d(A)[sp].d(A)[sp].d(C)[sp].[moe](T)[sp].[moe](G)[sp].[moe](A)[sp].[moe](G)[sp].[moe](C)}$$$$V2.0
target mRNA inhibition (HepG2, 0.07 µM): 52% and 53%

RNA1{[moe](A)[sp].[moe](A)[sp].[moe](T)[sp].[moe](T)[sp].[moe](T)[sp].d(A)[sp].d(T)[sp].d(G)[sp].d(C)[sp].d(C)[sp].d(T)[sp].d(A)[sp].d(C)[sp].d(A)[sp].[moe](G)[sp].[moe](C)[sp].[moe](C)}$$$$V2.0
target mRNA inhibition (HepG2, 0.07 µM): 63% and 50%

RNA1{[moe](C)[sp].[moe](T)[sp].[moe](A)[sp].[moe](G)[sp].d(T)[sp].d(A)[sp].d(A)[sp].d(A)[sp].d(C)[sp].d(T)[sp].d(G)[sp].d(A)[sp].d(G)[sp].[moe](C)[sp].[moe](C)[sp].[moe](A)}$$$$V2.0
target mRNA inhibition (HepG2, 0.07 µM): 66% and 65%

RNA1{[moe](A)[sp].[moe](T)[sp].[moe](G)[sp].d(A)[sp].d(G)[sp].d(G)[sp].d(C)[sp].d(A)[sp].d(T)[sp].d(A)[sp].d(G)[sp].d(C)[sp].[moe](A)[sp].[moe](G)[sp].[moe](C)[sp].[moe](A)}$$$$V2.0
target mRNA inhibition (HepG2, 0.07 µM): 53% and 44%

RNA1{[moe](A)[sp].[moe](G)[sp].[moe](A)[sp].[moe](G)[sp].[moe](G)[sp].d(T)[sp].d(G)[sp].d(A)[sp].d(A)[sp].d(G)[sp].d(C)[sp].d(G)[sp].d(A)[sp].d(A)[sp].[moe](G)[sp].[moe](T)}$$$$V2.0
target mRNA inhibition (HepG2, 0.07 µM): 55% and 52%

RNA1{[moe](G)[sp].[moe](A)[sp].[moe](A)[sp].[moe](C)[sp].[moe](C)[sp].[moe](A)[sp].d(C)[sp].d(T)[sp].d(G)[sp].d(A)[sp].d(A)[sp].d(C)[sp].d(A)[sp].d(A)[sp].d(A)[sp].[moe](T)[sp].[moe](G)}$$$$V2.0
target mRNA inhibition (HepG2, 0.07 µM): 53% and 43%

RNA1{[moe](A)[sp].[moe](T)[sp].[moe](T)[sp].[moe](T)[sp].d(A)[sp].d(T)[sp].d(G)[sp].d(C)[sp].d(C)[sp].d(T)[sp].d(A)[sp].d(C)[sp].d(A)[sp].[moe](G)[sp].[moe](C)[sp].[moe](C)[sp].[moe](T)}$$$$V2.0
target mRNA inhibition (HepG2, 0.07 µM): 58% and 42%

RNA1{[moe](G)[sp].[cEt](T)[sp].d(G)[sp].d(A)[sp].d(A)[sp].d(G)[sp].d(C)[sp].d(G)[sp].d(A)[sp].d(A)[sp].d(G)[sp].d(T)[sp].[cEt](G)[sp].[moe](C)[sp].[cEt](A)[sp].[moe](C)}$$$$V2.0
target mRNA inhibition (HepG2, 0.0092593 µM): 18%
target mRNA inhibition (HepG2, 0.0277778 µM): 36%
target mRNA inhibition (HepG2, 0.07 µM): 81% and 80%
target mRNA inhibition (HepG2, 0.0833333 µM): 75%
target mRNA inhibition (HepG2, 0.25 µM): 88%

RNA1{[moe](C)[sp].[cEt](C)[sp].d(A)[sp].d(A)[sp].d(T)[sp].d(T)[sp].d(T)[sp].d(A)[sp].d(T)[sp].d(G)[sp].d(C)[sp].d(C)[sp].[cEt](T)[sp].[moe](A)[sp].[cEt](C)[sp].[moe](A)}$$$$V2.0
target mRNA inhibition (HepG2, 0.07 µM): 37% and 55%

RNA1{[moe](C)[sp].[moe](C)[sp].[moe](A)[sp].[moe](C)[sp].[moe](T)[sp].d(G)[sp].d(A)[sp].d(A)[sp].d(C)[sp].d(A)[sp].d(A)[sp].d(A)[sp].d(T)[sp].d(G)[sp].[moe](G)[sp].[moe](C)}$$$$V2.0
target mRNA inhibition (HepG2, 0.07 µM): 55% and 44%

RNA1{[moe](G)[sp].[moe](A)[sp].d(A)[sp].d(G)[sp].d(C)[sp].d(G)[sp].d(A)[sp].d(A)[sp].d(G)[sp].d(T)[sp].d(G)[sp].[moe](C)[sp].[moe](A)[sp].[moe](C)[sp].[moe](A)[sp].[moe](C)}$$$$V2.0
target mRNA inhibition (HepG2, 0.0092593 µM): 9%
target mRNA inhibition (HepG2, 0.0277778 µM): 34%
target mRNA inhibition (HepG2, 0.07 µM): 71% and 64%
target mRNA inhibition (HepG2, 0.0833333 µM): 53%
target mRNA inhibition (HepG2, 0.25 µM): 81%

RNA1{[moe](A)[sp].[moe](G)[sp].[moe](T)[sp].[moe](T)[sp].[moe](C)[sp].d(C)[sp].d(G)[sp].d(C)[sp].d(A)[sp].d(G)[sp].d(T)[sp].d(A)[sp].d(T)[sp].d(G)[sp].[moe](G)[sp].[moe](A)}$$$$V2.0
target mRNA inhibition (HepG2, 0.07 µM): 61% and 40%

RNA1{[moe](G)[sp].[moe](A)[sp].[moe](G)[sp].[cEt](G)[sp].d(T)[sp].d(G)[sp].d(A)[sp].d(A)[sp].d(G)[sp].d(C)[sp].d(G)[sp].d(A)[sp].d(A)[sp].[cEt](G)[sp].[moe](T)[sp].[moe](G)[sp].[moe](C)}$$$$V2.0
target mRNA inhibition (HepG2, 0.009375 µM): 22%
target mRNA inhibition (HepG2, 0.01875 µM): 25%
target mRNA inhibition (HepG2, 0.0375 µM): 50%
target mRNA inhibition (HepG2, 0.075 µM): 69%
target mRNA inhibition (HepG2, 0.15 µM): 76%
target mRNA inhibition (HepG2, 0.3 µM): 88%

RNA1{[moe](G)[sp].[moe](C)[sp].[moe](A)[sp].[moe](G)[sp].[moe](T)[sp].d(A)[sp].d(T)[sp].d(G)[sp].d(G)[sp].d(A)[sp].d(T)[sp].d(C)[sp].d(G)[sp].d(G)[sp].[moe](C)[sp].[moe](A)}$$$$V2.0
target mRNA inhibition (HepG2, 0.07 µM): 67% and 61%

RNA1{[moe](A)[sp].[cEt](A)[sp].[moe](G)[sp].[cEt](C)[sp].d(G)[sp].[cEt](A)[sp].d(A)[sp].d(G)[sp].d(T)[sp].d(G)[sp].d(C)[sp].d(A)[sp].d(C)[sp].[moe](A)[sp].[moe](C)[sp].[moe](G)[sp].[moe](G)}$$$$V2.0
target mRNA inhibition (HepG2, 0.009375 µM): 31%
target mRNA inhibition (HepG2, 0.01875 µM): 28%
target mRNA inhibition (HepG2, 0.0375 µM): 48%
target mRNA inhibition (HepG2, 0.075 µM): 61%
target mRNA inhibition (HepG2, 0.15 µM): 80%
target mRNA inhibition (HepG2, 0.3 µM): 90%

RNA1{[moe](T)[sp].[moe](T)[sp].[moe](C)[sp].[moe](C)[sp].d(G)[sp].d(C)[sp].d(A)[sp].d(G)[sp].d(T)[sp].d(A)[sp].d(T)[sp].d(G)[sp].d(G)[sp].[moe](A)[sp].[moe](T)[sp].[moe](C)[sp].[moe](G)}$$$$V2.0
target mRNA inhibition (HepG2, 0.07 µM): 56% and 38%

RNA1{[moe](G)[sp].[moe](A)[sp].[moe](A)[sp].[moe](C)[sp].d(C)[sp].d(A)[sp].d(C)[sp].d(T)[sp].d(G)[sp].d(A)[sp].d(A)[sp].d(C)[sp].d(A)[sp].[moe](A)[sp].[moe](A)[sp].[moe](T)[sp].[moe](G)}$$$$V2.0
target mRNA inhibition (HepG2, 0.07 µM): 33% and 45%

RNA1{[moe](A)[sp].[moe](G)[sp].d(C)[sp].d(G)[sp].d(A)[sp].d(A)[sp].d(G)[sp].d(T)[sp].d(G)[sp].d(C)[sp].d(A)[sp].[moe](C)[sp].[moe](A)[sp].[moe](C)[sp].[moe](G)[sp].[moe](G)}$$$$V2.0
target mRNA inhibition (HepG2, 0.0092593 µM): 0%
target mRNA inhibition (HepG2, 0.0277778 µM): 30%
target mRNA inhibition (HepG2, 0.07 µM): 79% and 73%
target mRNA inhibition (HepG2, 0.0833333 µM): 72%
target mRNA inhibition (HepG2, 0.25 µM): 84%

RNA1{[moe](G)[sp].[moe](T)[sp].d(G)[sp].d(C)[sp].d(A)[sp].d(G)[sp].d(A)[sp].d(G)[sp].d(G)[sp].d(T)[sp].d(G)[sp].[moe](A)[sp].[moe](A)[sp].[moe](G)[sp].[moe](C)[sp].[moe](G)[sp].[moe](A)}$$$$V2.0
target mRNA inhibition (HepG2, 0.07 µM): 70% and 66%

RNA1{[moe](C)[sp].[moe](C)[sp].[moe](G)[sp].d(C)[sp].d(A)[sp].d(G)[sp].d(T)[sp].d(A)[sp].d(T)[sp].d(G)[sp].d(G)[sp].d(A)[sp].[moe](T)[sp].[moe](C)[sp].[moe](G)[sp].[moe](G)}$$$$V2.0
target mRNA inhibition (HepG2, 0.0092593 µM): 0%
target mRNA inhibition (HepG2, 0.0277778 µM): 23%
target mRNA inhibition (HepG2, 0.07 µM): 75% and 76%
target mRNA inhibition (HepG2, 0.0833333 µM): 56%
target mRNA inhibition (HepG2, 0.25 µM): 79%

RNA1{[moe](A)[sp].[moe](G)[sp].[moe](G)[sp].d(T)[sp].d(G)[sp].d(A)[sp].d(A)[sp].d(G)[sp].d(C)[sp].d(G)[sp].d(A)[sp].d(A)[sp].[moe](G)[sp].[moe](T)[sp].[moe](G)[sp].[moe](C)}$$$$V2.0
target mRNA inhibition (HepG2, 0.07 µM): 68% and 58%

RNA1{[moe](A)[sp].[moe](T)[sp].[moe](T)[sp].d(T)[sp].d(A)[sp].d(T)[sp].d(G)[sp].d(C)[sp].d(C)[sp].d(T)[sp].d(A)[sp].d(C)[sp].[moe](A)[sp].[moe](G)[sp].[moe](C)[sp].[moe](C)}$$$$V2.0
target mRNA inhibition (HepG2, 0.07 µM): 38% and 47%

RNA1{[moe](G)[sp].[cEt](A)[sp].d(A)[sp].d(C)[sp].d(C)[sp].d(A)[sp].d(C)[sp].d(T)[sp].d(G)[sp].d(A)[sp].d(A)[sp].d(C)[sp].[cEt](A)[sp].[moe](A)[sp].[cEt](A)[sp].[moe](T)}$$$$V2.0
target mRNA inhibition (HepG2, 0.07 µM): 49% and 43%
